Data on two compounds can be found in BindingDB's records for doi:10.1021/jm00077a017 (University of Rhode Island, 1994).

Broadly, the Ki is the equilibrium dissociation constant of an inhibitor or competing ligand from its target. High values mean a looser hold on the target, low ones a stronger hold on the target.

For assay [1], the target named is Adenosine deaminase 2 (CECR1) (Homo sapiens) (UniProt Q9NZK5). Nature of the assay: Tested for inhibition against human plasma adenosine deaminase (ADA2).
Assay [2] has the same target. Briefly: Tested for binding constant against adenosine deaminase (ADA2) in human plasma.

Adenosine deaminase 2 (CECR1) (Homo sapiens), sequence (Q9NZK5 whole entry, looked up): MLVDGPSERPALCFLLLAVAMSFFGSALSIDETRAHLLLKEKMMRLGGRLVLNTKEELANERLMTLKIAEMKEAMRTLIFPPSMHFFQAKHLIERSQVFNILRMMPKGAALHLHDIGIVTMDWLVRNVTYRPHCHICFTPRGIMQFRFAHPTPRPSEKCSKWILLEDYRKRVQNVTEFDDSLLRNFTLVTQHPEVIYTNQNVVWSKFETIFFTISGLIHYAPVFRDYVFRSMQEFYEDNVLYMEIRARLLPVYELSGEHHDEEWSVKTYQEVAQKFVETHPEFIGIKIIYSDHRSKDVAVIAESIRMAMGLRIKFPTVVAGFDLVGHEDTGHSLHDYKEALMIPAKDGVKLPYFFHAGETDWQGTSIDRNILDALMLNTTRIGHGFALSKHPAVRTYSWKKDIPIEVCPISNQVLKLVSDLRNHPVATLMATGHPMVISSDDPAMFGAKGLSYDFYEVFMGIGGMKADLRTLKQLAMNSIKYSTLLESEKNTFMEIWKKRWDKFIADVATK

`Nc1nncc2c1nnn2C1O[C@H](CO)[C@@H](O)[C@H]1O` (some centres not stated) had a Ki in assay [1] of 1410 µM.
Consider `Nc1ncnc2c1ncn2[C@@H]1O[C@H](CO)[C@@H](O)[C@H]1O` [[U-14C]adenosine], for which the Ki in assay [2] came out at 2180 µM.
